{"source": "paper PMC6131501", "about": "“Urate transporter inhibitor lesinurad is a selective peroxisome proliferator-activated receptor gamma modulator (sPPARγM) in vitro” (Scientific Reports, 2018)", "key": {"PPARα": {"molecular_target": "T1, PPARα (Homo sapiens, UniProt Q07869)", "T1 construct": "expressed in transfected cells; host or cells: HEK293T", "T1 sequence (Q07869 239-466 limits assumed)": "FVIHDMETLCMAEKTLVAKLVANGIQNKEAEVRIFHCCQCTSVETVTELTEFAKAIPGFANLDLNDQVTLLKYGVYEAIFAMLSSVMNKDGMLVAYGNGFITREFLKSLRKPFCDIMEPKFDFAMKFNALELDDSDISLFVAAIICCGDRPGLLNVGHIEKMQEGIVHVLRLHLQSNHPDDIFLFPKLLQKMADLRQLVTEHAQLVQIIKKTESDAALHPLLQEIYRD", "test": "Gal4 hybrid reporter gene assay PPARα", "format": "cell-based", "from_the_text": "These in vitro test systems are based on a constitutively expressed hybrid receptor composed of the ligand binding domain of the respective human nuclear receptor and the DNA binding domain of the yeast receptor Gal4. A Gal4-inducible firefly luciferase serves as reporter gene and a constitutively expressed renilla luciferase is used for normalization of transfection efficacy and internal toxicity control[18],[19]. […] The Gal4-fusion receptor plasmids pFA-CMV-hPPARα-LBD[50], pFA-CMV-hPPARγ-LBD[50], pFA-CMV-hPPARδ-LBD[50], pFA-CMV-hLXRα-LBD[51], pFA-CMV-hLXRβ-LBD[51], pFA-CMV-hRXRα-LBD[52], pFA-CMV-hRXRβ-LBD[52], pFA-CMV-hRXRγ-LBD[52], pFA-CMV-hRARα-LBD[52], pFA-CMV-hRARβ-LBD[52], pFA-CMV-hRARγ-LBD[52], pFA-CMV-hFXR-LBD[53], pFA-CMV-hVDR-LBD[52], pFA-CMV-hCAR-LBD[52] and pFA-CMV-hPXR-LBD[52] coding for the hinge region and ligand binding domain (LBD) of the canonical isoform of the respective nuclear receptor have been reported previously. pFR-Luc (Stratagene) was used as reporter plasmid and pRL-SV40 (Promega) for normalization of transfection efficiency and cell growth.\n(§1) HEK293T cells were grown in DMEM high glucose, supplemented with 10% FCS, sodium pyruvate (1 mM), penicillin (100 U/mL) and streptomycin (100 μg/mL) at 37 °C and 5% CO2. The day before transfection, HEK293T cells were seeded in 96-well plates (3·10^4 cells/well). Before transfection, medium was changed to Opti-MEM without supplements. Transient transfection was carried out using Lipofectamine LTX reagent (Invitrogen) according to the manufacturer’s protocol with pFR-Luc (Stratagene), pRL-SV40 (Promega) and the corresponding Gal4-fusion nuclear receptor plasmid. 5 h after transfection, medium was changed to Opti-MEM supplemented with penicillin (100 U/mL), streptomycin (100 μg/mL), now additionally containing 0.1% DMSO and the respective test compound or 0.1% DMSO alone as untreated control. Each concentration was tested in duplicates and each experiment was repeated independently at least three times. Following overnight (12-14 h) incubation with the test compounds, cells were assayed for luciferase activity using Dual-Glo™ Luciferase Assay System (Promega) according to the manufacturer’s protocol. Luminescence was measured with an Infinite M200 luminometer (Tecan Deutschland GmbH). […] Fold activation was obtained by dividing the mean RLU of a test compound at a respective concentration by the mean RLU of untreated control."}, "full-length PPARγ": {"molecular_target": "T2, full-length PPARγ (Homo sapiens, UniProt P37231)", "T2 construct": "host or cells: HEK293T", "T2 sequence (P37231 whole entry, the tested form may be a part)": "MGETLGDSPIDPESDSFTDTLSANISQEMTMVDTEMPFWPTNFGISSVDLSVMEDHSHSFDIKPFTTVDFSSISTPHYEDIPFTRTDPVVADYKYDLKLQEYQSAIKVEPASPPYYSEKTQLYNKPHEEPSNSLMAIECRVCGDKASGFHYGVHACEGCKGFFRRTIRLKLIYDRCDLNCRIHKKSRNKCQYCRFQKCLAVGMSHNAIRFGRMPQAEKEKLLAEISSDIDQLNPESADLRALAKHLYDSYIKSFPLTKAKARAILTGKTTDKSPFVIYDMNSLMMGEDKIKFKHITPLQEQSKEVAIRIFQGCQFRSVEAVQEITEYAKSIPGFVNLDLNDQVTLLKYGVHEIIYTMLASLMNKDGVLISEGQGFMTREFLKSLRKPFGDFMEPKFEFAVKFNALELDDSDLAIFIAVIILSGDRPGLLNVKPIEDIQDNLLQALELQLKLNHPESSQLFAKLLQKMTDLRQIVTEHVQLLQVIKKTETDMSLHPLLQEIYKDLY", "test": "Full-length PPARγ reporter gene assay", "format": "cell-based", "experimental": "as §1, with “Transient transfection was carried out using Lipofectamine LTX reagent (Invitrogen) according to the manufacturer’s protocol with pFR-Luc (Stratagene), pRL-SV40 (Promega) and the corresponding Gal4-fusion nuclear receptor plasmid.” left out"}, "PPARγ LBD / CBP": {"molecular_target": "PPARγ LBD / CBP (Homo sapiens, UniProt P37231)", "sequence (P37231 238-503 limits assumed)": "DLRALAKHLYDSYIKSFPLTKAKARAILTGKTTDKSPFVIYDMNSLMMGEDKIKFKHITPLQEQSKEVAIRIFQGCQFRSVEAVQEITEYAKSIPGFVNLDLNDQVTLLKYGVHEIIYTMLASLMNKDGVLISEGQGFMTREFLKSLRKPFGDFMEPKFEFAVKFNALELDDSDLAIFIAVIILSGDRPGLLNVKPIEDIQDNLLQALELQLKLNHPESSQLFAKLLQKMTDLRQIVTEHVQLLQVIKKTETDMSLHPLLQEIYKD", "sequence (Q92793 58-80 partner limits assumed)": "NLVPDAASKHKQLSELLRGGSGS", "test": "PPARγ coactivator recruitment assay (time-resolved FRET), CBP", "format": "biochemical", "from_the_text": "We analyzed the ability of lesinurad to induce recruitment of the coactivators steroid receptor coactivator 1 (SRC-1, also known as nuclear receptor coactivator 1 (NCOA1)) and cyclic AMP responsive element binding (CREB) protein (CBP) to the PPARγ ligand binding domain in a time-resolved FRET assay with labeled PPARγ-LBD and coactivator proteins (Fig. 5D).\nRecruitment of coactivator-derived peptides to the PPARγ LBD was studied by homogeneous time-resolved fluorescence resonance energy transfer (HT-FRET or HTRF). Terbium cryptate as streptavidin conjugate (cisbio assays, France) was used as FRET donor. Peptides derived from coactivators SRC-1 [biotin-[…]] or CBP [biotin-[…]] encompassing the coactivator consensus motif LxxLL and N-terminal biotin for stable coupling to streptavidin were purchased (Eurogentec GmbH, Germany). […] FI520 nm was divided by FI620 nm and multiplied with 10,000 giving a dimensionless HTRF signal. Coactivator recruitment by the PPARγ LBD brings FRET donor and acceptor into close proximity resulting in a gain in FRET signal as signal for binding."}}, "data": [{"smiles": "O=C(O)CSc1nnc(Br)n1-c1ccc(C2CC2)c2ccccc12", "note": "[lesinurad]", "values": [{"measurement": "Gal4-PPARα transactivation", "setting": "PPARα; 30 μM, compared with PPARγ", "result": "lower efficacy"}, {"measurement": "EC50", "setting": "PPARα; Gal4 hybrid reporter, HEK293T, 12-14 h, mean ± SEM, at least three experiments", "result": "20.8 ± 0.7", "unit": "µM"}, {"measurement": "PPARα activation efficacy", "setting": "PPARα; vs. 1 µM of PPARα agonist GW7647", "result": "13.5 ± 0.5", "unit": "%"}, {"measurement": "transactivation efficacy on full-length PPARγ", "setting": "full-length PPARγ; compared to reference agonists", "result": "higher transactivation efficacy than pioglitazone and rosiglitazone"}, {"measurement": "EC50", "setting": "full-length PPARγ; full-length human PPARγ, HEK293T, mean ± SEM", "result": "21 ± 2", "unit": "µM"}, {"measurement": "EC50", "setting": "PPARγ LBD / CBP; HTRF, PPARγ LBD, 2 h at RT", "result": "44 ± 8", "unit": "µM"}, {"measurement": "CBP recruitment efficacy", "setting": "PPARγ LBD / CBP; compared to 1 μM rosiglitazone", "result": "59 ± 4", "unit": "%"}]}]}
